# Measured values: patent publication US8349862B2, “Pyridine derivatives for the treatment of metabolic disorders related to insulin resistance or hyperglycemia” (Piramal Healthcare Limited, priority 2006, dated 2013)
# Where “and” joins values, the source holds several entries; their conditions need not be identical. Identical values can stand only once.
# Key:
# lean C57Bl6/J mice = assay: Evaluation of antiobesity, acute study: food intake in fasted lean mice; format: in vivo; settings: 100 mg/kg intraperitoneally, 2 hours after food introduction, p<0.001 vs vehicle
# Excerpt: The effect of standard (Sibutramine), Compound 1 and Compound 11 on food intake in lean C57Bl6/J mice at 2, 4, 6 and 24 hrs post-food introductions is indicated.
# The assay was designed as in reference, PCT publication WO 2003086306, the disclosure of which is incorporated by reference for the teaching of the assay.
# Male C57Bl6/J mice, weighing 20-25 g, were housed individually in the animal facility. Water and Chow (Amrut Laboratory Animal feed, Sangli, Maharashtra, India) were available ad libitum. One day before the study, the animals were weighed and separated into treatment groups having similar average body weight. For the experiment, the animals were deprived of food overnight for 16 hours. They were dosed intraperitoneally with test compounds (100 mg/kg) or comparator standard (Sibutramine, 3 mg/kg) in saline vehicle (10 mL/kg). Half an hour after drug administration the animals were presented with a pre-weighed amount of food in the food cup. Food that remained in the cup was measured at various time points. The effect of standard, and test compounds on food intake in fasted lean C57Bl6/J mice at 2, 4, 6 and 24 hrs post-food introductions was evaluated. […] (*** p<0.001 vs vehicle treated controls) (b) Chronic Study
# [1] = system: genetically diabetic db/db BL/6J mice; assay: Screening in db/db BL/6J mice: reduction of plasma glucose; format: in vivo; settings: 10 days
# Procedure: The protocol was designed as in references. • 1.
# The screening of compounds was based on their ability to reduce the plasma glucose levels in genetically diabetic db/db BL/6J mice.
# Male db/db mice (obtained from the Animal House of Nicholas Piramal Research Centre, Goregaon, Mumbai, India) were used for this study (body weight in the range of 30-40 g and age is 6-8 weeks) and were kept eight per cage in individually ventilated cages at controlled temperature (22±1° C.) and humidity (45±5%). Food and water were provided ad libitum during their laboratory stay, except for four hours fasting prior to blood sample collection. 12 hours light and dark cycle was followed during the whole study period.
# After 4 hours fasting blood samples were collected from mice. Mice showing plasma glucose levels between 300 to 500 mg/dl were divided in groups (8-10 per group) such that the mean plasma glucose levels and variation within the group, for each group, is nearly the same. After grouping, mice in respective groups received treatment with 0.5% CMC vehicle, standard compound or test compounds for 10 days.
# After 4 hours fasting, mice were anaesthetized using isoflurane (inhalation anesthetic), and blood samples were collected through the retro orbital plexus. Collected blood samples were centrifuged at 7000 rpm for 10 minutes at 4° C.; Separated plasma was used for estimation of plasma glucose using diagnostic kits (Diasys, Germany). Plasma glucose levels of treated groups were normalized with control group using the following formula, which accounted for the changes in control group.
# Formula used for normalization was *: {1−(Ratio of mean plasma glucose levels of control group on day 10 to day 0)/(Ratio of plasma glucose levels of treated group on day 10 to day 0)}×100.
# [2] = system: insulin resistant adipocytes (differentiated 3T3 L1 fibroblasts); assay: In vitro model exhibiting insulin resistance: 14C-2-deoxyglucose uptake in dexamethasone-treated adipocytes; format: cell-based; settings: test compound 10 μM/mL, Rosiglitazone 0.1 μM; for Fold Vehicle (fold activity over vehicle, glucose uptake): vehicle = 1.0, cut off for activity 1.50 fold
# Procedure: The assay was designed as in reference, British Journal of Pharmacology, 130, 351-58, 2000, the disclosure of which is incorporated by reference for the teaching of the assay. The solution of test compound (10 μM/mL) was prepared in DMSO. […] Differentiation into adipocytes was induced by known methods as described below. (J. Biol. […] 3T3 L1 fibroblasts were seeded in 24- or 6-well plates at a density of 0.5-2×10^4 cells/well and were allowed to reach maximal confluency. The confluent fibroblasts were exposed to culture medium for 2 days. […] The mature adipocytes were exposed to dexamethasone, 100 nM added in ethanol, in culture medium and incubated for 2 days. […] The test compound was also present during this period. After 3-4 hours, the medium was aspirated and replaced with Kreb's Ringer phosphate (KRP) buffer at pH 7.4 and with human/porcine insulin, 200 nM. The cells were incubated for 30 minutes at 37° C. […] After exactly 5 minutes, the plates were transferred to ice trays and medium was rapidly aspirated. The cell layer was washed twice with ice-cold phosphate buffered saline, (PBS), pH 7.4. […] Non-specific glucose uptake was assayed in wells exposed to cytochalasin B, inhibitor of glucose transport. […] Statistical analysis was performed using unpaired t-test.
# [3] = system: diet induced obese (DIO) C57Bl6/J mice; assay: Evaluation of antiobesity, chronic study: diet induced obese mice; format: in vivo; settings: 200 mg/kg intraperitoneally, 10 days of treatment
# Procedure: Diet induced obese (DIO) mice were treated with either standard (Sibutramine) or Compound 1 for 10 days.
# Cumulative body weight gain of diet induced obese (DIO) mice treated with either standard (Sibutramine) or Compound 1 for 10 days is indicated.
# The assay was designed as in the reference, British Journal of Pharmacology, 132, 1898-1904, 2001, the disclosure of which is incorporated by reference for the teaching of the assay. Male C57Bl6/J mice (3-4 weeks of age) were housed in groups of 10 animals per cage in the animal facility. High fat diet (D12451 Research Diets Inc., New Brunswick, N.J. 08901, USA), 45% kcal from fat) and water were provided ad libitum for 14 weeks. After this period, the animals were housed individually in cages. The animals were weighed and separated into groups with similar body weight. They were acclimatized to the experimental procedures for 2 days Animals were dosed intraperitoneally with test compound (200 mg/kg) or the standard (Sibutramine, 3 mg/kg) in 10 ml/kg of 0.5% CMC vehicle between 10:00 h-12:00 h. After drug administration the animals were presented with a pre-weighed amount of food in the food cup. Weight of feed remaining in the cup and body weight were recorded daily just prior to dosing. The change in weight and cumulative food intake were computed. The results are indicated in FIG. 2 and FIG. 3. • Conclusions: 1. […]
# Human PPARγ = target: T1, Human PPARγ (Homo sapiens, UniProt P37231); assay: Human PPARγ transactivation assay (luciferase reporter, HEK293 cells); format: cell-based
# T1 construct: Human full length PPARγ cDNA was cloned into pSG5 expression vector; expressed in transfected cells; host or cells: HEK293
# T1 sequence (P37231 1-505): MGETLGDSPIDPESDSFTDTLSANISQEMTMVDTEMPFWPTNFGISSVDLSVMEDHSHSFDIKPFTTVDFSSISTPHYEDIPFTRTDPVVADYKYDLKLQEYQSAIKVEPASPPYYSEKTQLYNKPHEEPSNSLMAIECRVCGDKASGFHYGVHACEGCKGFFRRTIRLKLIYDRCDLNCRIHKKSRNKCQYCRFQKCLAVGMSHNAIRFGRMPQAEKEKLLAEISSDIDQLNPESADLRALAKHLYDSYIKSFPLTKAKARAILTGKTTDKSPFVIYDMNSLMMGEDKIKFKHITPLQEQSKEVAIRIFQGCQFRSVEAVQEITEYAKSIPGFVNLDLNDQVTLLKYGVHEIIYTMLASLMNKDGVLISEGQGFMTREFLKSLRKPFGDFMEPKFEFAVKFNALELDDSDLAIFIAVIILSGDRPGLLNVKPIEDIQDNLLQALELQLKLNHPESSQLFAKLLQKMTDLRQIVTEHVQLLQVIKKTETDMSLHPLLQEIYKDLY
# Procedure: The assay was designed as in the reference, Biochem. Biophys. Res. Comm. 175:865-871, 1991, the disclosure of which is incorporated by reference for the teaching of the assay.
# Human PPARγ activity was evaluated by transactivation using a luciferase reporter gene. […] Human full length PPARγ cDNA was cloned into pSG5 expression vector (Stratagene, Lo Jolla, Calif.).
# HEK293 cells were seeded in 24 well plates and grown in DMEM supplemented with 10% (v/v) FCS. After 24 hours, they were transfected with 100 ng of hPPARγ receptor and 300 ng of AOX-3×PPRE-LUC reporter construct per well using Fugen 6 transfection reagent (Roche, Indianapolis, Ind.). […] The control was 0.1% DMSO. After 48 hours, transactivation activity was determined by luciferase assay using Steady Glow reagent (Promega, Madison, Wis.).
# Mouse PPARγ = target: T2, Mouse PPARγ (Mus musculus, UniProt P37238); assay: Mouse PPARγ assay (TransAM PPARγ ELISA, 3T3-L1 fibroblasts); format: cell-based; settings: 72 hrs, Compound 1 50 μM, Rosiglitazone 10 μM
# T2 construct: endogenous in cells; host or cells: 3T3-L1 fibroblasts
# T2 sequence (P37238 1-505): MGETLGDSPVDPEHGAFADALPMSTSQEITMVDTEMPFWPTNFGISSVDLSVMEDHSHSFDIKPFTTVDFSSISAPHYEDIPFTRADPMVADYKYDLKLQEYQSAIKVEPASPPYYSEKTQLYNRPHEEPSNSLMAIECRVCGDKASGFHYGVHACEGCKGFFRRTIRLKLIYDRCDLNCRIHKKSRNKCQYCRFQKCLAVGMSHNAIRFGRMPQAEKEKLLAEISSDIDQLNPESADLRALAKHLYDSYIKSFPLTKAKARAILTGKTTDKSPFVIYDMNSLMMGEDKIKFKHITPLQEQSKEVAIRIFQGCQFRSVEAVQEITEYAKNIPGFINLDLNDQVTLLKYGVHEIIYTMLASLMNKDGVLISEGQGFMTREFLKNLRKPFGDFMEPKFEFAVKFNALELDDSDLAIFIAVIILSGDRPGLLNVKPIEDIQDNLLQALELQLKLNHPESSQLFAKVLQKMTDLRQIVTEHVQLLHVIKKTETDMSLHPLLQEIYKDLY
# Procedure: The assay was designed as in the reference, Blood, 104(5), 1361-8, 2004, the disclosure of which is incorporated by reference for the teaching of the assay.
# 3T3-L1 fibroblasts were seeded in 6-well plates at a density of 4×10^4 cells/well and cultured in DMEM containing 10% calf serum. […] The plates were incubated for 72 hrs at 37° C. in a CO2 incubator with fresh medium containing test substances added after first 48 hrs. After 72 hrs, the medium was removed; the cell layer was washed and processed for the PPARγ assay as per the instruction of the manufacturer (Active Motif, North America, California, USA). PPARγ activation was determined using 96-well ELISA assay as per the instruction manual (TransAM PPARγ. Active Motif, Cat 0.40196).
SMILES,"% of Rosiglitazone (comparison with Rosiglitazone, glucose uptake) [2] [%]","Fold Vehicle (fold activity over vehicle, glucose uptake) [2]",also measured
"O=S(=O)(Nc1cnc(Oc2ccc(N3CCNCC3)cc2)c(Cl)c1)c1ccc(Cl)cc1Cl [Compound 11, 2,4-Dichloro-N-(5-chloro-6-(4-(piperazin-1-yl)phenoxy)pyridin-3-yl)benzene sulfonamide]",,,Inhibition of food intake (lean C57Bl6/J mice): effective in inhibiting food intake
"CC(=O)N1CCN(c2ccc(Oc3ncc(NC(=O)CCC(=O)O)cc3Cl)cc2)CC1 [Compound 14, 4-(6-(4-(4-Acetylpiperazin-1-yl)phenoxy)-5-chloropyridin-3-ylamino)-4-oxobutanoic acid]",27.5,1.49 ± 0.05,Normalization with control (plasma glucose reduction) ([1]; 100 mpk bid): Inactive
"CC(=O)N1CCN(c2ccc(Oc3ncc(NS(=O)(=O)c4ccc(Cl)c(Cl)c4)cc3Cl)cc2)CC1 [Compound 6, N-(6-(4-(4-Acetylpiperazin-1-yl)phenoxy)-5-chloropyridin-3-yl)-3,4-dichlorobenzene-sulfonamide]",69.76,1.93 ± 0.06,
"CC(=O)N1CCN(c2ccc(Oc3ncc(NS(=O)(=O)c4ccc(C(F)(F)F)cc4Cl)cc3Cl)cc2)CC1 [Compound 5, N-(6-(4-(4-Acetylpiperazin-1-yl)phenoxy)-5-chloropyridin-3-yl)-2-chloro-4-(trifluoromethyl)benzenesulfonamide]",63.94,1.85 ± 0.04,
"COc1ccc(OC)c(S(=O)(=O)Nc2cnc(Oc3ccc(N4CCN(C(C)=O)CC4)cc3)c(Cl)c2)c1 [Compound 4, N-(6-(4-(4-Acetylpiperazin-1-yl)phenoxy)-5-chloropyridin-3-yl)-2,5-dimethoxy-benzenesulfonamide]",41.33,1.55 ± 0.03,
"CC(=O)N1CCN(c2ccc(Oc3ncc(NS(=O)(=O)c4ccc(Cl)cc4Cl)cc3Cl)cc2)CC1 [Compound 1, N-(6-(4-(4-Acetylpiperazin-1-yl)phenoxy)-5-chloropyridin-3-yl)-2,4-dichlorobenzene-sulfonamide]",61.4,2.10 ± 0.05,Normalization with control (plasma glucose reduction) ([1]; 100 mpk bid): 46.07 ± 4.55; Cumulative body weight gain [3]: effective in reducing cumulative body weight gain; Cumulative food intake [3]: effective in reducing cumulative food intake; melting point: 215 to 216 °C; PPARγ activity (% of rosiglitazone) (Human PPARγ): 6.4 % of rosiglitazone; PPARγ activity (% of rosiglitazone) (Mouse PPARγ): 5.1 % of rosiglitazone; Inhibition of food intake (lean C57Bl6/J mice): effective in inhibiting food intake
"O=S(=O)(Nc1cnc(Oc2ccccc2-c2nc3ccccc3s2)c(Cl)c1)c1ccc(Cl)cc1Cl [Compound 15, N-(6-(2-(Benzo[d]thiazol-2-yl)phenoxy)-5-chloropyridin-3-yl)-2,4-dichlorobenzene-sulfonamide]",36.7,2.0 ± 0.13,
"CN(CCOc1ccc(CC2SC(=O)NC2=O)cc1)c1ccccn1 (stereo not shown) [Rosiglitazone, reference compound]",,,Normalization with control (plasma glucose reduction) ([1]; Rosiglitazone 5 mpk bid): 55.73 ± 4.46 and 53.34 ± 4.11
